Laboratory results taken from patent US8637443B2, “Cleaning compositions and methods comprising a hydrofluoro-olefin or hydrochlorofluoro-olefin solvent” (Honeywell International Inc., priority 2008, dated 2014).

Test: toxicity (comparative statement, no method given)
Conditions: in comparison to CF3CH═CF2 (HFO-1225zc)

With `FC=C(F)C(F)(F)F` [HFO-1225yez, 1,1,1,2,3 pentafluoropropene] the degree of toxicity was “relatively low degree of toxicity”.
